Experiments:
Assay in all cases: NADPH/GSH reductase-coupled HED assay, A340
Assay type in all cases: biochemical
Settings in all cases: read-out: Km (HED); 0.5 mM GSH, 0.2 mM NADPH, yeast GSH reductase, 50 mM sodium phosphate pH 7.5, 50 mM NaCl, 25 °C
[1] = target: cGrx2 (Clostridium Cys-containing Grx2) (Alkaliphilus oremlandii, UniProt A8MJH2)
[2] = target: cGrx1 (Clostridium selenoprotein Grx1) (Alkaliphilus oremlandii, UniProt A8MIN3, U13C)
eGrx1 (E. coli Grx1) = eGrx1 (E. coli Grx1) (Escherichia coli, UniProt P68688)
Chain of eGrx1 (E. coli Grx1) (P68688 whole entry): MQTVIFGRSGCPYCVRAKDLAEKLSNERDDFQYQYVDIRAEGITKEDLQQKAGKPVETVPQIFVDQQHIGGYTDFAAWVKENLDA

[3] = target: cGrx2 (Clostridium Cys-containing Grx2) (Alkaliphilus oremlandii, UniProt A8MJH2, C15S)

Structure (SMILES): OCCSSCCO [hydroxyethyl disulfide]
- Km [1]: 17.6 ± 5.6 mM
- Km [2]: 1.5 ± 0.8 mM
- Km (eGrx1 (E. coli Grx1)): 11.2 ± 2.2 mM
- Km [3]: 18.1 ± 4.5 mM

Source: article PMC3062254 (Molecular microbiology, 2011)
